EC50 data for three compounds are collected here from ChEMBL document CHEMBL5209575, “Membrane potential based assay for SLC1A1 using HEK-293 SLC1A1 OE cells” (2022).

This experiment deals with T1, Excitatory amino acid transporter 3 (Homo sapiens, UniProt P43005).
T1 sequence (P43005 whole entry): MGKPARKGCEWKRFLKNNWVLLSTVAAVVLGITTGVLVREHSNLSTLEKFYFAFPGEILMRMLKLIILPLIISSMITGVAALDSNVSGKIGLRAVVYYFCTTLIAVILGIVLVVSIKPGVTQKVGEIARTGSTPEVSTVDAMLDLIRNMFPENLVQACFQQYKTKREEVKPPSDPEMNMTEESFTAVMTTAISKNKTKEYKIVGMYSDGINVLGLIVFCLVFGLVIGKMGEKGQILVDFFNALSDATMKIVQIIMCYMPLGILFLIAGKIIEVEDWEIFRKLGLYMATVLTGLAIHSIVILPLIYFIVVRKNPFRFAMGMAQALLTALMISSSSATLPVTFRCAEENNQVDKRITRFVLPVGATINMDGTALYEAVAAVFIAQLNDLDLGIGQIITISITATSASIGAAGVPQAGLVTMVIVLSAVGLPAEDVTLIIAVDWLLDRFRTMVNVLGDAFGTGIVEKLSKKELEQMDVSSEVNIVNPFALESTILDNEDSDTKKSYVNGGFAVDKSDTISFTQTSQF
The experiment in a line: Substrate uptake by the Excitatory Amino Acid Transporter 3 (EAAT3, SLC1A1) as assessed by the fluorescent FLIPR membrane potential dye in HEK-293 JumpIN-SLC1A1 cells (PubChem AID: 1794812). Type of experiment: functional, cell-based, HEK293.

As to `N[C@@H](CC(=O)O)C(=O)O` [ASPARTIC ACID], under “hek293”, the EC50 entry is “Substrate: The Commpound Is Eliciting A Specific Response, But A Broader Concentration Range Is Needed To Calculate A Correct Ec50”. For `N[C@@H](CS)C(=O)O` [CYSTEINE], the concentration giving a half-maximal response (EC50) (read-out: EC50) was 161 µM. As for `N[C@@H](CCC(=O)O)C(=O)O` [GLUTAMIC ACID], for the setting “hek293”, the EC50 entry is listed as “Substrate: The Commpound Is Eliciting A Specific Response, But A Broader Concentration Range Is Needed To Calculate A Correct Ec50”.
